Calls of active or inactive are those of the source. No cut-off for these calls is given here.
Key:
[1] = tested on: MDCK; test: Antiviral activity against amantadine-resistant Influenza A virus A/Puerto Rico/8/34 expressing M2 proton channel S31N mutant infected in MDCK cells assessed as inhibition of viral replication at 0.001 to 100 uM measured after 10 hrs by miniplaque assay; format: functional, cell-based; conditions: Influenza A virus (A/Puerto Rico/8/1934(H1N1))
[2] = tested on: MDCK; test: Antiviral activity against amantadine-resistant Influenza A virus A/Puerto Rico/8/34 expressing M2 proton channel V27A mutant infected in MDCK cells assessed as inhibition of viral replication at 100 uM measured after 10 hrs by miniplaque assay; format: functional, cell-based; conditions: Influenza A virus (A/Puerto Rico/8/1934(H1N1))

SMILES	inhibition [1]	inhibition [2]
CC1(C)N=C(NCCN2CCN(Cc3ccccc3)CC2)S[C@]12CC[C@@H](C)CC2	Active	Active
CN(C)CCN1CCN(CCNC2=NC(C)(C)[C@]3(CC[C@H](C)CC3)S2)CC1	Active	–
CN1CCN(CCNC2=NC(C)(C)[C@]3(CC[C@H](C)CC3)S2)CC1	Active	–
CCCCN1CCN(CCNC2=NC(C)(C)[C@]3(CC[C@H](C)CC3)S2)CC1	Active	Active
CCCCCCCCN1CCN(CCNC2=NC(C)(C)[C@]3(CC[C@H](C)CC3)S2)CC1	Active	–
CCOCCN1CCN(CCNC2=NC(C)(C)[C@]3(CC[C@H](C)CC3)S2)CC1	Active	Active
CC(C)CCN1CCN(CCNC2=NC(C)(C)[C@]3(CC[C@H](C)CC3)S2)CC1	Active	Active

— ChEMBL document CHEMBL3856190, “Novel spirothiazamenthane inhibitors of the influenza A M2 proton channel” (Eur J Med Chem, 2016)
